Data taken from article PMC6572064, “Discovery of 2-(1-(3-(4-Chloroxyphenyl)-3-oxo- propyl)pyrrolidine-3-yl)-1H-benzo[d]imidazole-4-carboxamide: A Potent Poly(ADP-ribose) Polymerase (PARP) Inhibitor for Treatment of Cancer” (Molecules, 2019).
Read-outs that look alike come from different tables or passages of the source.

How the values were obtained:
PARP-1 = target: T1, PARP-1 (Homo sapiens, UniProt P09874); assay: PARP-1 inhibition assay (PARP-1 Chemiluminescent Assay Kit, BPS Bioscience); type: biochemical; conditions: for inhibition at 0.01 µM: 10 nM compound
T1 construct: purchased BPS Bioscience 80569
T1 sequence (P09874 whole entry): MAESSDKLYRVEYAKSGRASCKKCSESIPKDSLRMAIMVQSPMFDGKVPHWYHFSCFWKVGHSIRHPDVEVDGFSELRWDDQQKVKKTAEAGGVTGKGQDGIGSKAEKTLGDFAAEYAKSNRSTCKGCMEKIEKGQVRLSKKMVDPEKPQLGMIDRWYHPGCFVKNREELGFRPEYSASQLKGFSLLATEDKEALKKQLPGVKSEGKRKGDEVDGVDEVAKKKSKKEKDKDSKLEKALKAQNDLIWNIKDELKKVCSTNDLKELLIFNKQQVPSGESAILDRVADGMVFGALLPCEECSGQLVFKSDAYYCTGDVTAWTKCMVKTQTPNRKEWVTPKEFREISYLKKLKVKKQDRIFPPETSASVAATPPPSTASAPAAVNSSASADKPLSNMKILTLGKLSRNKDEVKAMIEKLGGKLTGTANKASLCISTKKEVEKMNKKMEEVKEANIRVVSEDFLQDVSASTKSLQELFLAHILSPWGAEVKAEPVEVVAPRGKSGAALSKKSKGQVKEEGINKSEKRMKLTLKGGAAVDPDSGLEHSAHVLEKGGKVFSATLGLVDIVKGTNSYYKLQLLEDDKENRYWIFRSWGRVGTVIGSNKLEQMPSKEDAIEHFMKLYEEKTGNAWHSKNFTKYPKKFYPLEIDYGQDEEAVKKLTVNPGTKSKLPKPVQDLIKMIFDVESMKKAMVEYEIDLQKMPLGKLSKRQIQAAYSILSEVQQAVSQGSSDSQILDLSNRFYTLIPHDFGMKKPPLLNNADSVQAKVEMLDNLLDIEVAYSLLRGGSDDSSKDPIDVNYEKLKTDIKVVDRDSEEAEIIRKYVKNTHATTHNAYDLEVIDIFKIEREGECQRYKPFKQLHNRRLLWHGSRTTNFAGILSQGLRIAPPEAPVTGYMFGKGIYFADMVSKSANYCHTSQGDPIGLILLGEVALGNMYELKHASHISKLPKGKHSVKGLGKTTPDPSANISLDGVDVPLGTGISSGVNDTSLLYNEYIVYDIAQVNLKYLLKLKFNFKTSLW
Description: (§1) The PARP-1 and PARP-2 inhibition assays were performed in outsourcing, by a CRO company, Shanghai Medicilon Inc. (Shanghai, China). […] Briefly, PARP-1 or PARP-2 biotinylated substrate was incubated with compounds or solvent control at varying concentrations and an assay buffer containing the PARP-1 or PARP-2 enzyme.

PARP-2 = target: T2, PARP-2 (Homo sapiens, UniProt Q9UGN5); assay: PARP-2 inhibition assay (PARP-2 Chemiluminescent Assay Kit, BPS Bioscience); type: biochemical; conditions: for inhibition at 0.01 µM: 10 nM compound
T2 construct: purchased BPS Bioscience 80552
T2 sequence (Q9UGN5 whole entry): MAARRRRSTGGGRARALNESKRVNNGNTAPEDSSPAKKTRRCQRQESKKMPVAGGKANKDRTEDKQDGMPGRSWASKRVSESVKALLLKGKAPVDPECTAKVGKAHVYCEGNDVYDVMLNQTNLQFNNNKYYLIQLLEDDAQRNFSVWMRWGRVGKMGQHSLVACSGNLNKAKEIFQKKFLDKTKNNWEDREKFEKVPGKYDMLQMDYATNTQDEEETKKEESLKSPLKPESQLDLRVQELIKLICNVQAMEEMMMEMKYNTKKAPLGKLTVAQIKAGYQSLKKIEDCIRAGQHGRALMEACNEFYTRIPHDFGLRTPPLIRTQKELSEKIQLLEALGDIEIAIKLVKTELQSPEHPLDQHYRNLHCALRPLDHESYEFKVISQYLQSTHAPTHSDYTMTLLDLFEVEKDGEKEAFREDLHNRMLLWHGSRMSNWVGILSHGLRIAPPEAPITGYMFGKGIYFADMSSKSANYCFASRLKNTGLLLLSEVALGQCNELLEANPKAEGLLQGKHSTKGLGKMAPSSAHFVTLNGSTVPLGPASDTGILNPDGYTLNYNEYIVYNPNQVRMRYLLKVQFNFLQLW
Description: as §1

[1] = system: MDA-MB-436 (a BRCA-1-mutated breast cancer cell line); assay: Cell proliferation assay, three-day, CellTiter-Glo, MDA-MB-436; type: cell-based; conditions: for inhibition at 0.00508 µM / inhibition at 0.0152 µM / inhibition at 0.0457 µM / inhibition at 0.41 µM / inhibition at 1.23 µM / inhibition at 3.7 µM / inhibition at 11.11 µM / inhibition at 33.33 µM / inhibition at 100 µM / IC50: Homo sapiens; for inhibition at 0.00508 µM: MDA-MB-436, MDA-MB-436, Conc. 0.00508 uM; for inhibition at 0.0152 µM: MDA-MB-436, MDA-MB-436, Conc. 0.0152 uM; for inhibition at 0.0457 µM: MDA-MB-436, MDA-MB-436, Conc. 0.0457 uM; for inhibition at 0.41 µM: MDA-MB-436, MDA-MB-436, Conc. 0.41 uM; for inhibition at 1.23 µM: MDA-MB-436, MDA-MB-436, Conc. 1.23 uM; for inhibition at 3.7 µM: MDA-MB-436, MDA-MB-436, Conc. 3.70 uM; for inhibition at 11.11 µM: MDA-MB-436, MDA-MB-436, Conc. 11.11 uM; for inhibition at 33.33 µM: MDA-MB-436, MDA-MB-436, Conc. 33.33 uM; for inhibition at 100 µM: MDA-MB-436, MDA-MB-436, Conc. 100.00 uM
Procedure, shortened: (§2)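 Luminescent ATP read-out (CellTiter-Glo, 60 min at room temperature) quantified viability after a 72 h compound exposure at 37 °C, 5% CO2. Compounds, diluted from DMSO stocks into growth medium, were added to cells plated the previous day.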

[2] = system: CAPAN-1 (a BRCA-2-mutated pancreatic cancer cell line); assay: Cell proliferation assay, three-day, CellTiter-Glo, CAPAN-1; type: cell-based; conditions: for IC50 / inhibition at 0.00508 µM / inhibition at 0.0152 µM / inhibition at 0.0457 µM / inhibition at […] / inhibition at 0.41 µM / inhibition at 1.23 µM / inhibition at 3.7 µM / inhibition at 11.11 µM / inhibition at 33.33 µM / inhibition at 100 µM: Homo sapiens; for inhibition at 0.00508 µM: CAPAN-1, 0.00508 uM; for inhibition at 0.0152 µM: CAPAN-1, 0.0152 uM; for inhibition at 0.0457 µM: CAPAN-1, 0.0457 uM; for inhibition at […]: CAPAN-1, 0.14 uM; for inhibition at 0.41 µM: CAPAN-1, 0.41 uM; for inhibition at 1.23 µM: CAPAN-1, 1.23 uM; for inhibition at 3.7 µM: CAPAN-1, 3.70 uM; for inhibition at 11.11 µM: CAPAN-1, 11.11 uM; for inhibition at 33.33 µM: CAPAN-1, 33.33 uM; for inhibition at 100 µM: CAPAN-1, 100.00 uM
Procedure, shortened: as §2

inhibition at 0.01 µM (PARP-1; supplement sheet, read-out: 10 nM inhibition% PAPR-1): 65.7% | inhibition at 0.01 µM (PARP-1; read-out: PARP-1 Inhibition % (10 nM)): 65.7% | IC50 (PARP-1; read-out: PARP-1 IC50): 0.0039 µM | IC50 (PARP-1; supplement sheet, read-out: IC50 PAPR-1): 0.00389 µM | inhibition at 0.01 µM (PARP-2; supplement sheet, read-out: 10 nM inhibition% PAPR-2): 65.5% | inhibition at 0.01 µM (PARP-2; read-out: PARP-2 Inhibition % (10 nM)): 65.6% | IC50 (PARP-2; read-out: PARP-2 IC50): 0.0042 µM | IC50 (PARP-2; supplement sheet, read-out: IC50 PAPR-2): 0.00422 µM | IC50 ([1]; MDA-MB-436, 72 h, CellTiter-Glo, read-out: MDA-MB-436 IC50): 17.4 µM | IC50 ([1]; MDA-MB-436, 72 h, supplement Summary sheet, read-out: IC50): 17.4 µM | IC50 ([1]; MDA-MB-436, curve fit list, no unit in the cell, concentration in uM, read-out: IC50): 17.4 µM | IC50 ([2]; CAPAN-1, 72 h, CellTiter-Glo, read-out: CAPAN-1 IC50): 11.4 µM | IC50 ([2]; CAPAN-1, 72 h, supplement Summary sheet, read-out: IC50): 11.4 µM | IC50 ([2]; CAPAN-1, curve-fit output, concentrations in uM, read-out: IC50): 11.4 µM
Compound: NC(=O)c1cccc2[nH]c(C3CCN(CCC(=O)c4ccc(Cl)cc4)C3)nc12 (centres unmarked) [Compound 5cj]
inhibition at 0.00508 µM ([1]; replicate 1, read-out: Inh % 1): -7.9% | inhibition at 0.00508 µM ([1]; replicate 2, read-out: Inh % 2): -1.6% | inhibition at 0.0152 µM ([1]; replicate 1, read-out: Inh % 1): -3% | inhibition at 0.0152 µM ([1]; replicate 2, read-out: Inh % 2): -9.8% | inhibition at 0.0457 µM ([1]; replicate 1, read-out: Inh % 1): -14.2% | inhibition at 0.0457 µM ([1]; replicate 2, read-out: Inh % 2): -14.3% | inhibition at 0.41 µM ([1]; replicate 1, read-out: Inh % 1): -16.8% | inhibition at 0.41 µM ([1]; replicate 2, read-out: Inh % 2): -14.6% | inhibition at 1.23 µM ([1]; replicate 1, read-out: Inh % 1): -8.7% | inhibition at 1.23 µM ([1]; replicate 2, read-out: Inh % 2): -14.5% | inhibition at 3.7 µM ([1]; replicate 1, read-out: Inh % 1): -10.6% | inhibition at 3.7 µM ([1]; replicate 2, read-out: Inh % 2): -13.6% | inhibition at 11.11 µM ([1]; replicate 1, read-out: Inh % 1): 10.8% | inhibition at 11.11 µM ([1]; replicate 2, read-out: Inh % 2): 8.2% | inhibition at 33.33 µM ([1]; replicate 1, read-out: Inh % 1): 93.8% | inhibition at 33.33 µM ([1]; replicate 2, read-out: Inh % 2): 82.1% | inhibition at 100 µM ([1]; replicate 1, read-out: Inh % 1): 99.7% | inhibition at 100 µM ([1]; replicate 2, read-out: Inh % 2): 98.9% | LogIC50 ([1]; MDA-MB-436, curve fit on Log (uM) concentrations): 1.241 | Bottom ([1]; MDA-MB-436, curve fit parameter (Inh %)): -11.12 | Top ([1]; MDA-MB-436, curve fit parameter (Inh %), '= 100.0' is a constrained value): 99.53 | LogIC50 ([2]; CAPAN-1, curve-fit output, Log (uM)): 1.057 | inhibition at 0.00508 µM ([2]; replicate 1, read-out: Inh % 1): 9.5% | inhibition at 0.00508 µM ([2]; replicate 2, read-out: Inh % 2): -1.4% | inhibition at 0.0152 µM ([2]; replicate 1, read-out: Inh % 1): 3.1% | inhibition at 0.0152 µM ([2]; replicate 2, read-out: Inh % 2): -2.2% | inhibition at 0.0457 µM ([2]; replicate 1, read-out: Inh % 1): 3.3% | inhibition at 0.0457 µM ([2]; replicate 2, read-out: Inh % 2): 3.4% | inhibition at […] ([2]; replicate 1, read-out: Inh % 1): 13.7% | inhibition at […] ([2]; replicate 2, read-out: Inh % 2): -6.2% | inhibition at 0.41 µM ([2]; replicate 1, read-out: Inh % 1): 2.9% | inhibition at 0.41 µM ([2]; replicate 2, read-out: Inh % 2): 7.7% | inhibition at 1.23 µM ([2]; replicate 1, read-out: Inh % 1): -2.6% | inhibition at 1.23 µM ([2]; replicate 2, read-out: Inh % 2): 0.5% | inhibition at 3.7 µM ([2]; replicate 1, read-out: Inh % 1): 7.7% | inhibition at 3.7 µM ([2]; replicate 2, read-out: Inh % 2): 2.2% | inhibition at 11.11 µM ([2]; replicate 1, read-out: Inh % 1): 54.1% | inhibition at 11.11 µM ([2]; replicate 2, read-out: Inh % 2): 45.1% | inhibition at 33.33 µM ([2]; replicate 1, read-out: Inh % 1): 97.9% | inhibition at 33.33 µM ([2]; replicate 2, read-out: Inh % 2): 96.8% | inhibition at 100 µM ([2]; replicate 1, read-out: Inh % 1): 99.6% | inhibition at 100 µM ([2]; replicate 2, read-out: Inh % 2): 98.9%
